Laboratory results reported in article PMC4475657 (Iranian Journal of Basic Medical Sciences, 2015).

Target: human tau protein 1N/4R isoform (htau34) (Homo sapiens, UniProt P10636)
Assay: ThT fluorescence aggregation assay of purified tau
Format: biochemical

Chain of human tau protein 1N/4R isoform (htau34) (P10636 1-412 isoform P10636-7): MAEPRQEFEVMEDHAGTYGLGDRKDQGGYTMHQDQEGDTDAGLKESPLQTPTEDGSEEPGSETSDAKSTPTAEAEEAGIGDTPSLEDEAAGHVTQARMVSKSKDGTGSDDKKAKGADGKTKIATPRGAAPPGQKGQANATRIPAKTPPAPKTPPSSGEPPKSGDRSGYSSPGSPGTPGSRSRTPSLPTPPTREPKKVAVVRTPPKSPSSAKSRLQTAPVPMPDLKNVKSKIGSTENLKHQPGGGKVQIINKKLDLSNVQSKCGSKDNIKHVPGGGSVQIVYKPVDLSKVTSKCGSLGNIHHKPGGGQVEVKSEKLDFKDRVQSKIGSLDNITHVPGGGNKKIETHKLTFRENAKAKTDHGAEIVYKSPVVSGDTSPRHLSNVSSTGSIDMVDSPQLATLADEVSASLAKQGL

## CC(/C=C/C=C(\C)C(=O)O[C@@H]1O[C@H](CO[C@@H]2O[C@H](CO)[C@@H](O)[C@H](O)[C@H]2O)[C@@H](O)[C@H](O)[C@H]1O)=C\C=C\C=C(C)\C=C\C=C(/C)C(=O)O[C@@H]1O[C@H](CO[C@@H]2O[C@H](CO)[C@@H](O)[C@H](O)[C@H]2O)[C@@H](O)[C@H](O)[C@H]1O [crocin]
  IC50: 102 µM
